Test results as given in patent US8802137B2, “Sustained release of antiinfectives” (Insmed Incorporated, priority 2002, dated 2014).
Where two headings read alike, the source gives them in different places.

Legend:
rat alveolar macrophages = details: in vivo
Text: The basal and stimulated functions of rat alveolar macrophages obtained by lavage were studied with and without administration of liposomal amikacin formulations and compared to various controls.

[1] = Bioavailability of amikacin from inhaled liposomal amikacin formulations: lung homogenate levels; details: CD IGS, rat, in vivo, 5 mg/kg
[2] = Clinical chemical assay (TDX) of aminoglycoside content in tissue of treated infected rats; format: in vivo; details: Sprague-Dawley, other: intratracheal (IT), 10 mg/rat
Method: […] The clinical chemical assay was performed using a TDX instrument while the bioassay was performed by measuring inhibition zones on agar plates embedded with Bacillus subtilis.

P. aeruginosa PA01 = assay: In vitro release and activity in Slide-A-Lyzer cartridges, CFU after 24 hrs; format: cell-based; details: amikacin 50 μg/mL, preliminary experiments
Method: An in vitro test of release and activity was performed under conditions similar to the pharmacokinetics in the lung, where it has been previously shown that free antibiotic is cleared on the time scale of a few hours. […] Free drug dialyzes out of the cartridges on the time scale of hours under these conditions. After 24 hrs., the samples were withdrawn from the cartridges and plated to measure CFU.

[3] = design: species or system rats; details: rat, in vivo
Method: The binding of aminoglycosides to sputum of CF patients is a concern, particularly if this binding reduces the bioactivity of the antiinfective (Hunt et al., 1995). To determine whether liposomal formulations of amikacin can retain biological activity over a prolonged period of time, normal rats were administered liposomal formulations of amikacin by intratracheal instillation. This was followed by its removal at 2 or 24 hours via a bronchial alveolar lavage (BAL) to determine biological activity. […] Amikacin concentration was determined employing a TDX instrument and biological activity determined using a Mueller Hinton broth dilution assay (Pseudomonas aeruginosa).

[4] = mouse, in vivo, po, 15 mg/kg
[5] = lung homogenate, homogenized rat lungs following the 14 day experiment, read-out: Clinical Assay

In the case of NCC[C@H](O)C(=O)N[C@@H]1C[C@H](N)[C@@H](O[C@H]2O[C@H](CN)[C@@H](O)[C@H](O)[C@H]2O)[C@H](O)[C@H]1O[C@H]1O[C@H](CO)[C@@H](O)[C@H](N)[C@H]1O [Free amikacin, amikacin], the “inflammatory response in the lungs (nitrates and TNF-α in BALF)” value (rat alveolar macrophages) is reported as “did not produce a significant acute or delayed inflammatory response”, the concentration at 24 h [1] is reported as ~500000 ng/g and the concentration at 14 day [2, 5] is reported as 2000 ng/mL. The “reduction of CFUs” value (P. aeruginosa PA01) was “only slightly reduced the CFU”.

In the case of NC[C@H]1O[C@H](O[C@H]2[C@H](O)[C@@H](O[C@H]3O[C@H](CO)[C@@H](O)[C@H](N)[C@H]3O)[C@H](N)C[C@@H]2N)[C@H](N)C[C@@H]1O [Free tobramycin, tobramycin], the concentration at 14 day [2, 5] is reported as 1400 ng/mL, the concentration at 14 day ([2]; rat, kidney, kidneys, following the 14 day experiment, read-out: detectable levels of aminoglycoside in the kidneys) is reported as 100 ng/mL and the “drug in a BAL” value [3] is reported as “undetectable”.

For O=C(O)c1cn(C2CC2)c2cc(N3CCNCC3)c(F)cc2c1=O [free ciprofloxacin, ciprofloxacin], the “detectability of drug in the lung over time” value [4] was “undetectable in less than two hours”.
